For one assay, the target named is T1, NADPH oxidase 4 (Nox4) (Homo sapiens, UniProt Q9NPH5).
T1 sequence (Q9NPH5 1-578): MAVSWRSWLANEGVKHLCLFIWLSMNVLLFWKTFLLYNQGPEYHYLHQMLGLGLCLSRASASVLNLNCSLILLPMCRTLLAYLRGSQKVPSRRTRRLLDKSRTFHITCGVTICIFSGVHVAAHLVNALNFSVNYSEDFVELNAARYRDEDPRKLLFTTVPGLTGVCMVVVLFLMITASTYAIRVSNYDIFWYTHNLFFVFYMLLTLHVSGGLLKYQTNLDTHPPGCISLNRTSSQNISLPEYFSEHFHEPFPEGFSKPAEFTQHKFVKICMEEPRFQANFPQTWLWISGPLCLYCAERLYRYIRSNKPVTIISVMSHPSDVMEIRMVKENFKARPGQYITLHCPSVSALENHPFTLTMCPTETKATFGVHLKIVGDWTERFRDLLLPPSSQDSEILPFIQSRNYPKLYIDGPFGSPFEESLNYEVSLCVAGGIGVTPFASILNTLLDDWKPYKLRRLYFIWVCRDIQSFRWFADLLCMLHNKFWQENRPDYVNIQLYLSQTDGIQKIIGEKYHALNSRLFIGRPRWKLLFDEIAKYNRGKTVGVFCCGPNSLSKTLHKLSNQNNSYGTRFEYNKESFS
Briefly: luminol chemiluminescence of ROS in HEK cells expressing Nox4, normalized to pcDNA cells; mitochondrial ROS scavenging counterscreen. The class given is cell-based. (The purpose of a counterscreen is to sort out artefacts and off-target activity.)

In another assay the target is T2, Nox5 (Homo sapiens, UniProt Q96PH1).
T2 sequence (Q96PH1 1-765): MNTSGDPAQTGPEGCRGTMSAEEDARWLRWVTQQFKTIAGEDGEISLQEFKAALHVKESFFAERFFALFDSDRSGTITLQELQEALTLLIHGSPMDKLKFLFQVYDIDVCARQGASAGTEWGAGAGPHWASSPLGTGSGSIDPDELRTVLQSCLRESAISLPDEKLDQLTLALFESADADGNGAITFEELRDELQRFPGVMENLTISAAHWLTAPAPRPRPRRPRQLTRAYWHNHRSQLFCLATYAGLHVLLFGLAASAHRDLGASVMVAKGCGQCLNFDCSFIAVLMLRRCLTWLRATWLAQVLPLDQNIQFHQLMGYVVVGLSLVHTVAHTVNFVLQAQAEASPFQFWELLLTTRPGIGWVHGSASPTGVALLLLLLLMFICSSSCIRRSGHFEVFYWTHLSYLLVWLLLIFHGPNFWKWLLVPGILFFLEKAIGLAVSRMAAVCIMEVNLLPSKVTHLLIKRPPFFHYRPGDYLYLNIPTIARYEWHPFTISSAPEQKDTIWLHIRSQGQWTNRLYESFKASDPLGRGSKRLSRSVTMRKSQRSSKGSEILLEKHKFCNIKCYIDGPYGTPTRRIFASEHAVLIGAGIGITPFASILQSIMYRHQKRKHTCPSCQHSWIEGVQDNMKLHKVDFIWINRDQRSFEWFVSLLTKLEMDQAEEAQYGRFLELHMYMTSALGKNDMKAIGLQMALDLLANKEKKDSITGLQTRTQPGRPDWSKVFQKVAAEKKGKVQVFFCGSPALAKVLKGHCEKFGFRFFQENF
Briefly: chemiluminescence of ROS in ionomycin-stimulated Nox5-transfected HEK cells. The class given is cell-based. The source says: chemiluminescence of ROS in ionomycin-stimulated Nox5-transfected HEK cells on Nox5 | stably transfected Nox5 overexpressing HEK cells were stimulated with ionomycin. This activity could be quenched completely by DPI

One may read the IC50 as the concentration at which inhibition is half-maximal. Higher therefore signals a need for much substance. On to `O=C(/C=C/c1ccc(O)c(O)c1)O[C@H](Cc1ccc(O)c(O)c1)C(=O)O` [RA, rosmarinic acid], for which 1000 nM corresponded to half-maximal inhibition on NADPH oxidase 4 (Nox4) (IC50). In the case of `c1ccc2c(c1)[I+]c1ccccc1-2` [DPI, diphenyleneiodonium], the “chemiluminescence of ROS in ionomycin-stimulated Nox5-transfected HEK cells” value at Nox5 is reported as “stably transfected Nox5 overexpressing HEK cells were stimulated with ionomycin. This activity could be quenched completely by DPI”.

The values above are taken from PMC6017630, “Identification of the NADPH Oxidase 4 Inhibiting Principle of Lycopus europaeus” (Molecules : A Journal of Synthetic Chemistry and Natural …, 2018).
